Source: PMC6480153, “Discovery of Novel Triazole-Containing Pyrazole Ester Derivatives as Potential Antibacterial Agents” (Molecules, 2019)
Values after ≈ are worked out from the molar mass of the structure shown. Read-outs that look alike come from different tables or passages of the source.

Columns and labels:
[1] = test system: Listeria monocytogenes (ATCC-15313); assay: MIC by agar-dilution method against Listeria monocytogenes; format: cell-based; conditions: for MIC: read-out: MIC L.m
Description: (§1) In vitro antimicrobial activity of the prepared compounds against four bacteria was evaluated by the conventional agar-dilution method. Ciprofloxacin was selected as a reference standard.
(§2) The solid media Luria-Bertani (LB)-Broth-Agar-Medium (tryptone 10 g/L, yeast 5 g/L, NaCl 10 g/L, agar 15 g/L, and distilled water 1000 mL, adjusted to pH 7.4 was used for testing the antibacterial activity.
(§3) The in vitro antibacterial activity for synthesized compounds 4a–m were evaluated using the agar-dilution method. […] Drugs (10.0 mg) were dissolved in DMSO (1 mL) and the solution was diluted with water (9 mL). […] The bacterial inocula were prepared by suspending 24 h-old bacterial colonies from LB-Broth-Agar-Medium in 0.85% saline. The inocula were adjusted to 0.5 McFarland Standard ([…]). The suspensions were then diluted in 0.85% saline to give 10^7 CFU/mL. Petri dishes were spot-inoculated with 1 μL of each of the prepared bacterial suspensions (10^4 CFU/spot) and incubated at 37 °C for 24 h. […] A control test was also performed with test medium supplemented with DMSO at the same dilutions as used in the experiment in order to ensure that the solvent had no influence on bacterial growth.

[2] = test system: Salmonella gallinarum (ATCC-9184); assay: MIC by agar-dilution method against Salmonella gallinarum; format: cell-based; conditions: 24 h; for MIC: Salmonella enterica, read-out: MIC S.e
Description: as §1, §2, §3

[3] = test system: Staphylococcus aureus (ATCC-12600); assay: MIC by agar-dilution method against Staphylococcus aureus; format: cell-based; conditions: for MIC: ATCC12600
Description: as §1, §2, §3

[4] = test system: Escherichia coli (ATCC-25922); assay: MIC by agar-dilution method against Escherichia coli; format: cell-based; conditions: 24 h; for MIC E. c: 37 °C
Description: as §1, §2, §3

[5] = target: T1, DNA gyrase (Escherichia coli, UniProt P0AES4+P0AES6); assay: DNA gyrase (topoisomerase II) supercoiling inhibition, gel electrophoresis; format: biochemical; conditions: Topoisomerase II supercoiling activity; enzyme isolated from Escherichia coli
T1 construct: First, the E. coli suspension is extracted to obtain a crude enzyme solution; endogenous in cells
T1 sequence (P0AES4 whole entry, one chain of several): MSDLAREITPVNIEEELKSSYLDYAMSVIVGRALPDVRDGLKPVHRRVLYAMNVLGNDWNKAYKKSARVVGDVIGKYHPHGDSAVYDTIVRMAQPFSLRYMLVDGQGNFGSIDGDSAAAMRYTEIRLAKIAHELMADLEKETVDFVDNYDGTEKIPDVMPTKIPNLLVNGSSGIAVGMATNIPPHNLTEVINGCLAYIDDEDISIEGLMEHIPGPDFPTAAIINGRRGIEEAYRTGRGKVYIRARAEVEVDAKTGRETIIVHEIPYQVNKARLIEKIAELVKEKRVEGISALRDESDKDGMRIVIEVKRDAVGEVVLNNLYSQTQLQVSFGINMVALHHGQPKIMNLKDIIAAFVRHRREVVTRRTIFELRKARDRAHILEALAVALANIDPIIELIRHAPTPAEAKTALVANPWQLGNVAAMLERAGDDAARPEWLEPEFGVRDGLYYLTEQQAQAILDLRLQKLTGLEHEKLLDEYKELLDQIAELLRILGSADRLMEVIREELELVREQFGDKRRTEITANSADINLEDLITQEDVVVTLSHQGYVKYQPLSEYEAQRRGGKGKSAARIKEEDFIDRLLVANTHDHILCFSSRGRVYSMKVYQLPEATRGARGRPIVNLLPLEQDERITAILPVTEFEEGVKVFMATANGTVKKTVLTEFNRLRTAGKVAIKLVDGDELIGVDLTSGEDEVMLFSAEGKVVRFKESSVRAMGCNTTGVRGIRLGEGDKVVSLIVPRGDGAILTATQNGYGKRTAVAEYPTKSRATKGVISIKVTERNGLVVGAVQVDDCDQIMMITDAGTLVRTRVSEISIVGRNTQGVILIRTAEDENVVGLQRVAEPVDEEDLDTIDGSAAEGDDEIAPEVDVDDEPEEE
Description: (§4) In order to determine the relationship between compounds and antibacterial activity, the inhibitory activity of selected compounds (4d and 4k) against DNA gyrase and topoisomerase IV isolated from Escherichia coli was examined.
(§5) The in vitro antibacterial activity of the target compounds was carried out on by the methods of Sato et al. and Peng and Marians. First, the E. coli suspension is extracted to obtain a crude enzyme solution. After the purification step, the selected compounds are determined by gel electrophoresis to obtain data of different gradient concentrations, thereby calculating the IC50 values.

[6] = target: T2, topoisomerase IV (Escherichia coli, UniProt P0AFI2+P20083); assay: Topoisomerase IV decatenation inhibition, gel electrophoresis; format: biochemical; conditions: Topoisomerase IV decatenation activity, enzyme isolated from Escherichia coli
T2 construct: First, the E. coli suspension is extracted to obtain a crude enzyme solution; endogenous in cells
T2 sequence (P20083 whole entry): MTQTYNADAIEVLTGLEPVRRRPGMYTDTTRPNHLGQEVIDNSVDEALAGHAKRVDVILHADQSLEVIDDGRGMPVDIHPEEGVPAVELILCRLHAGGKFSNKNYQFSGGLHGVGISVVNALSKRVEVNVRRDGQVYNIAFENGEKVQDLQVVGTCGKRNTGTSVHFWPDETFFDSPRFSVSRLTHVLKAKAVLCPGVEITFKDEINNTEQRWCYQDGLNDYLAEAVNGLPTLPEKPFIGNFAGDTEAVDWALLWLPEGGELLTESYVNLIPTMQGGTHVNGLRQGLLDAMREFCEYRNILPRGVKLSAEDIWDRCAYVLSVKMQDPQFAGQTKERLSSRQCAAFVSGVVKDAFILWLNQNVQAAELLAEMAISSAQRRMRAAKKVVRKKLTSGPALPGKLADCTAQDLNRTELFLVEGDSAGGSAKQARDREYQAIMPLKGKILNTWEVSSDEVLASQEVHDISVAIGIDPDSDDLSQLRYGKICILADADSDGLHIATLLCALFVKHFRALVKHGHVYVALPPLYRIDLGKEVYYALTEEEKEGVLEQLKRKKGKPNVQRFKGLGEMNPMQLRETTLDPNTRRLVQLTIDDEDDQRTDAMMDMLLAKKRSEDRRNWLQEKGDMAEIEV
T2 sequence (P0AFI2 whole entry): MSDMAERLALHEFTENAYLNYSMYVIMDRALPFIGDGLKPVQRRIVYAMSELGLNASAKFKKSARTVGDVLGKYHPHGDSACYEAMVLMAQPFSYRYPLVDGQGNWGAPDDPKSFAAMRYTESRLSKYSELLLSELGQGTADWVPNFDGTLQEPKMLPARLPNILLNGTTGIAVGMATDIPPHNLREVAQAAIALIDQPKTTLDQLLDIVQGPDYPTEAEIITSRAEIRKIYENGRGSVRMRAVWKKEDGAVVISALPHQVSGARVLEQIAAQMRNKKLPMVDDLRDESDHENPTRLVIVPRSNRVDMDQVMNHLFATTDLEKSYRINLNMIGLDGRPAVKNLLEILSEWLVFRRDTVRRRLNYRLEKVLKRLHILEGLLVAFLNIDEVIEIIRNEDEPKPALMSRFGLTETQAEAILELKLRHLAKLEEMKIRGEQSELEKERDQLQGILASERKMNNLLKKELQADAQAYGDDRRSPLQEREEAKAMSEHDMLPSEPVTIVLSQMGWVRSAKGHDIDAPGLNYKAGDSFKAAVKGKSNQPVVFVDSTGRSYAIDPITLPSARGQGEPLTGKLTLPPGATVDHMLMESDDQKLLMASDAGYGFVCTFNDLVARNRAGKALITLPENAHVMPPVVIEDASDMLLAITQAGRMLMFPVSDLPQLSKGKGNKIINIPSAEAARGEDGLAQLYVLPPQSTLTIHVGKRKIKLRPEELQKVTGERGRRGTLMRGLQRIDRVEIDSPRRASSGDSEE
Description: as §4, §5

[7] = Staphylococcus aureus ATCC-12600, agar dilution, 37 °C, 24 h
[8] = Listeria monocytogenes ATCC-15313, agar dilution, 37 °C, 24 h
[9] = Salmonella gallinarum ATCC-9184, agar dilution, 37 °C

Structure (SMILES) | MIC S.a [3, 7] | MIC L.m [1, 8] | MIC E. c [4] | MIC S.e [2, 9] | further results
O=C(O)c1cn(C2CC2)c2cc(N3CCNCC3)c(F)cc2c1=O [CIP, Ciprofloxacin, reference compound] |  |  |  |  | MIC ([1]; Listeria monocytogenes, ATCC15313, 24 h): 1 µg/mL (≈ 3.02 µM); MIC [2]: 0.25 µg/mL (≈ 0.754 µM)
Cc1nn(-c2ccccc2)c(Cl)c1C(=O)Oc1ncn(-c2ccccc2)n1 [Compound 4a, 1-phenyl-1H-1,2,4-triazol-3-yl5-chloro-3-methyl-1-phenyl-1H-pyrazole-4-carboxylate] | 16 µg/mL (≈ 42.1 µM) | 16 µg/mL (≈ 42.1 µM) | 8 µg/mL (≈ 21.1 µM) | 16 µg/mL (≈ 42.1 µM) | 
Cc1nn(-c2ccc(F)cc2)c(Cl)c1C(=O)Oc1ncn(-c2ccccc2)n1 [Compound 4b, 1-phenyl-1H-1,2,4-triazol-3-yl5-chloro-1-(4-fluorophenyl)-3-methyl-1H-pyrazole-4-carboxylate] | >128 µg/mL | >128 µg/mL | 64 µg/mL (≈ 161 µM) | 64 µg/mL (≈ 161 µM) | 
Cc1nn(-c2ccc(Cl)cc2)c(Cl)c1C(=O)Oc1ncn(-c2ccccc2)n1 [Compound 4c, 1-phenyl-1H-1,2,4-triazol-3-yl5-chloro-1-(4-chlorophenyl)-3-methyl-1H-pyrazole-4-carboxylate] | 64 µg/mL (≈ 154 µM) | >128 µg/mL | 64 µg/mL (≈ 154 µM) | 64 µg/mL (≈ 154 µM) | 
Cc1ccc(-n2nc(C)c(C(=O)Oc3ncn(-c4ccccc4)n3)c2Cl)cc1 [Compound 4d, 1-phenyl-1H-1,2,4-triazol-3-yl5-chloro-3-methyl-1-(p-tolyl)-1H-pyrazole-4-carboxylate] |  |  |  |  | MIC ([3]; Staphylococcus aureus ATCC-12600, agar dilution, 37 °C, 24 h, read-out: MIC S.a): 4 µg/mL (≈ 10.2 µM); MIC ([3]; Staphylococcus aureus, range stated in text for three compounds, read-out: MIC against Staphylococcus aureus): 4 to 8 µg/mL (≈ 10.2 to 20.3 µM); MIC ([1]; ATCC15313, Listeria monocytogenes ATCC-15313, agar dilution, 37 °C, 24 h): 2 µg/mL (≈ 5.08 µM); MIC ([4]; ATCC25922, 37 °C): 4 µg/mL (≈ 10.2 µM); MIC [2, 9]: 0.5 µg/mL (≈ 1.27 µM); IC50 [5]: 34.3 µM; IC50 ([6]; read-out: IC50 Topo IV (converted)): 61.4 µM; melting point: 154 to 156 °C
Cc1nn(-c2ccccc2)c(Cl)c1C(=O)Oc1ncn(-c2ccc(F)cc2)n1 [Compound 4e, 1-(4-fluorophenyl)-1H-1,2,4-triazol-3-yl5-chloro-3-methyl-1-phenyl-1H-pyrazole-4-carboxylate] | 64 µg/mL (≈ 161 µM) | 32 µg/mL (≈ 80.4 µM) | 32 µg/mL (≈ 80.4 µM) | 32 µg/mL (≈ 80.4 µM) | 
Cc1nn(-c2ccc(F)cc2)c(Cl)c1C(=O)Oc1ncn(-c2ccc(F)cc2)n1 [Compound 4f, 1-(4-fluorophenyl)-1H-1,2,4-triazol-3-yl5-chloro-1-(4-fluorophenyl)-3-methyl-1H-pyrazole-4-carboxylate] | >128 µg/mL | >128 µg/mL | >128 µg/mL | >128 µg/mL | 
Cc1nn(-c2ccc(Cl)cc2)c(Cl)c1C(=O)Oc1ncn(-c2ccc(F)cc2)n1 [Compound 4g, 1-(4-fluorophenyl)-1H-1,2,4-triazol-3-yl5-chloro-1-(4-chlorophenyl)-3-methyl-1H-pyrazole-4-carboxylate] | 64 µg/mL (≈ 148 µM) | 64 µg/mL (≈ 148 µM) | 64 µg/mL (≈ 148 µM) | 64 µg/mL (≈ 148 µM) | 
Cc1ccc(-n2nc(C)c(C(=O)Oc3ncn(-c4ccc(F)cc4)n3)c2Cl)cc1 [Compound 4h, 1-(4-fluorophenyl)-1H-1,2,4-triazol-3-yl5-chloro-3-methyl-1-(p-tolyl)-1H-pyrazole-4-carboxylate] | 8 µg/mL (≈ 19.4 µM) | 16 µg/mL (≈ 38.9 µM) | 32 µg/mL (≈ 77.7 µM) | 32 µg/mL (≈ 77.7 µM) | 
Cc1nn(-c2ccc(F)cc2)c(Cl)c1C(=O)Oc1ncn(-c2ccc(Cl)cc2)n1 [Compound 4i, 1-(4-chlorophenyl)-1H-1,2,4-triazol-3-yl5-chloro-1-(4-fluorophenyl)-3-methyl-1H-pyrazole-4-carboxylate] | >128 µg/mL | 64 µg/mL (≈ 148 µM) | >128 µg/mL | 64 µg/mL (≈ 148 µM) | 
Cc1nn(-c2ccc(Cl)cc2)c(Cl)c1C(=O)Oc1ncn(-c2ccc(Cl)cc2)n1 [Compound 4j, 1-(4-chlorophenyl)-1H-1,2,4-triazol-3-yl5-chloro-1-(4-chlorophenyl)-3-methyl-1H-pyrazole-4-carboxylate] | 64 µg/mL (≈ 143 µM) | 64 µg/mL (≈ 143 µM) | 64 µg/mL (≈ 143 µM) | 32 µg/mL (≈ 71.3 µM) | 
Cc1ccc(-n2cnc(OC(=O)c3c(C)nn(-c4ccccc4)c3Cl)n2)cc1 [Compound 4k, 1-(p-tolyl)-1H-1,2,4-triazol-3-yl-5-chloro-3-methyl-1-phenyl-1H-pyrazole-4-carboxylate] | 4 µg/mL (≈ 10.2 µM) | 8 µg/mL (≈ 20.3 µM) | 4 µg/mL (≈ 10.2 µM) | 4 µg/mL (≈ 10.2 µM) | IC50 Gyrase [5]: 25.7 µg/mL (≈ 65.3 µM); IC50 Topo IV [6]: 33.1 µg/mL (≈ 84 µM)
Cc1ccc(-n2cnc(OC(=O)c3c(C)nn(-c4ccc(F)cc4)c3Cl)n2)cc1 [Compound 4l, 1-(p-tolyl)-1H-1,2,4-triazol-3-yl5-chloro-1-(4-fluorophenyl)-3-methyl-1H-pyrazole-4-carboxylate] | 32 µg/mL (≈ 77.7 µM) | 64 µg/mL (≈ 155 µM) | 32 µg/mL (≈ 77.7 µM) | 32 µg/mL (≈ 77.7 µM) | 
